Laboratory results: patent US7691374B2, “Method for increasing the efficacy of anti-tumor agents by anti-endoglin antibody” (Health Research, Inc., priority 2002, dated 2010)

Assays:
[1] = tested on: murine vessels in the tumors; assay: Count of murine vessels in tumors after therapy; format: in vivo, mouse; conditions: large tumors at end of experiment of FIG. 7
Text: (§1) Large tumors of two different sizes (i.e., 350-450 mm^3 and 100-250 mm^3) were obtained from each group of mice for immunostaining and vessel counting. Sections of the tumors were stained with individual mAbs or a mixture of anti-human CD105 and CD31 mAbs and a mixture of anti-mouse CD105 and CD31 mAbs as described above. Human and mouse vessels were counted separately as described above. An average of vessel counts in the two tumors was compared between different groups.
(§2) Human and murine blood vessels were immunostained in the large human tumors from the chimera mice after the mice were sacrificed at the end of experiment shown in FIG. 7. Number of murine vessels in the tumors was 52, 47, 47 and 34 per 100× field for groups A, B, C and D, respectively (see FIG. 7 for the groups). Therefore, SN6j (group B) and CPA (group C) caused only a small decrease (approximately 10%) in the number of murine vessels in the tumors compared with the control (group A). However, combination of SN6j and CPA (group D) caused a larger (i.e., 35%) decrease in the number of murine vessels. […] CPA was not effective for inhibiting human vessels and only weakly suppressive against murine vessels.

[2] = tested on: human vessels in the tumors; assay: Count of human vessels in tumors after therapy; format: in vivo; conditions: large tumors at end of experiment of FIG. 7
Text: as §1, §2

Colon-26 tumors = assay: Therapy of established Colon-26 tumors in BALB/c mice; format: in vivo; conditions: SN6j 1.8 μg/g i.v., DOX 0.5 μg/g i.p.
Experimental: Antiangiogenic Therapy of Preformed Colon Tumors in Mice. Colon-26 cells (1.25×10^5 cells in 0.1 ml PBS) were inoculated subcutaneously (s.c.) into left flank of BALB/c mice. […] Doxorubicin (0.5 μg/g body weight) was injected intraperitoneally (i.p.) into mice. The administration was repeated three times at 4 days intervals.
Follow-up of Treatment Efficacy.
SN6j (1.8 μg/g body weight) and MOPC195v (1.8 μg/g body weight) were injected i.v. while DOX (0.5 μg/g body weight) was injected i.p. The injectections were repeated three times at 4 days intervals.
Details of the analysis were described by Yokoyama et al. (31), Yu et al. (32) and us (25). […] This improvement persisted until the end of the therapy experiment (Table 3).

| Structure (SMILES) | decrease in the number of murine vessels compared with the control [1] | number of murine vessels in the tumors per 100× field [1] | number of human vessels in the tumors per 100× field [2] | Fractional tumor volume (FTV) relative to untreated controls (Colon-26 tumors; Day 4 after tumor cell inoculation, all mice) | Fractional tumor volume (FTV) relative to untreated controls (Colon-26 tumors; Day 4 after tumor cell inoculation, tumors of >4 mm^3 at onset of therapy) | Fractional tumor volume (FTV) relative to untreated controls (Colon-26 tumors; Day 7 after tumor cell inoculation, all mice) | Fractional tumor volume (FTV) relative to untreated controls (Colon-26 tumors; Day 7 after tumor cell inoculation, tumors of >4 mm^3 at onset of therapy) | Fractional tumor volume (FTV) relative to untreated controls (Colon-26 tumors; Day 9 after tumor cell inoculation, all mice) | Fractional tumor volume (FTV) relative to untreated controls (Colon-26 tumors; Day 9 after tumor cell inoculation, tumors of >4 mm^3 at onset of therapy) | Fractional tumor volume (FTV) relative to untreated controls (Colon-26 tumors; Day 11 after tumor cell inoculation, all mice) | Fractional tumor volume (FTV) relative to untreated controls (Colon-26 tumors; Day 11 after tumor cell inoculation, tumors of >4 mm^3 at onset of therapy) | Fractional tumor volume (FTV) relative to untreated controls (Colon-26 tumors; Day 13 after tumor cell inoculation, all mice) | Fractional tumor volume (FTV) relative to untreated controls (Colon-26 tumors; Day 13 after tumor cell inoculation, tumors of >4 mm^3 at onset of therapy) | Fractional tumor volume (FTV) relative to untreated controls (Colon-26 tumors; Day 15 after tumor cell inoculation, all mice) | Fractional tumor volume (FTV) relative to untreated controls (Colon-26 tumors; Day 15 after tumor cell inoculation, tumors of >4 mm^3 at onset of therapy) | Fractional tumor volume (FTV) relative to untreated controls (Colon-26 tumors; Day 17 after tumor cell inoculation, all mice) | Fractional tumor volume (FTV) relative to untreated controls (Colon-26 tumors; Day 17 after tumor cell inoculation, tumors of >4 mm^3 at onset of therapy) | Fractional tumor volume (FTV) relative to untreated controls (Colon-26 tumors; Day 19 after tumor cell inoculation, all mice) | Fractional tumor volume (FTV) relative to untreated controls (Colon-26 tumors; Day 19 after tumor cell inoculation, tumors of >4 mm^3 at onset of therapy) |
| --- | --- | --- | --- | --- | --- | --- | --- | --- | --- | --- | --- | --- | --- | --- | --- | --- | --- | --- | --- |
| O=P1(N(CCCl)CCCl)NCCCO1 (stereo not shown) [CPA, cyclophosphamide] | approximately 10% | 47 per 100× field | 36 per 100× field |  |  |  |  |  |  |  |  |  |  |  |  |  |  |  |  |
| COc1cccc2c1C(=O)c1c(O)c3c(c(O)c1C2=O)C[C@@](O)(C(=O)CO)C[C@@H]3O[C@H]1C[C@H](N)[C@H](O)[C@H](C)O1 [DOX, Doxorubicin] |  |  |  | 0.954 | 0.979 | 0.741 | 0.753 | 0.895 | 0.954 | 0.956 | 1.018 | 0.860 | 1.009 | 0.976 | 1.159 | 0.813 | 0.954 | 0.873 | 1.101 |
